Reference: patent US20250041307A1, “Uses of Bicyclic Compounds for the Treatment of Diseases” (Athira Pharma, Inc., priority 2021, published 2025)

Experiments:
[1] = test system: Rat primary cortical neuron cultures; test: Protection from neurotoxicity in vitro (Cell Titer-Glo viability); format: cell-based; set-up: key to Protection of cell viability, statistical significance vs. insult control: NS=not significant; +=p<0.05; ++=p<0.01; +++=p<0.001
Protocol: HGF/MET signaling activation is expected to protect cells, including neurons, from cell death. […] Hydrogen peroxide (H2O2) treatment produces toxic oxidative stress. Bacteria-derived lipopolysaccharide (LPS) treatment induces inflammatory cell death. Treatment with excess glutamate (Glut) produces excitotoxicity in neuron cultures. Treatment with 1-methyl-4-phenylpyridinium (MPP^+) causes cell death by inhibition of mitochondrial function.
Rat primary cortical neuron cultures were grown at 37° C., 5% CO2 in Complete Neurobasal Medium supplemented with B27/GDNF/BDNF containing 10% FBS until maturity and were then seeded in 384-well plate at 5,000 cells/well. Cultures were then treated for 15 minutes with 1 uM, 100 nM, 10 nM, 1 nM, or 0.1 nM of compound 1a. Cells were then subjected to individual conditional insults for 24 hours at the following concentrations: H2O2 at 1 uM, LPS at 1 uM, glutamate at 25 uM, MPP+ at 500 uM. All treatments contained recombinant human HGF (R&D Systems) at a concentration of 5 ng/ml.
To quantify neuroprotection, cell viability was measured with the Cell Titer-Glo Luminescent Cell Viability Assay (Promega, Cat #G7571). Data was normalized to DMSO+HGF control set at 100% cell viability. Statistical analyses for each group (n=4) were performed using one-way ANOVA with Tukey's Multiple comparison test.
Data is reported as statistical significance vs. insult control, with NS=not significant, +=p<0.05, ++=p<0.01, and +++=p<0.001.

[2] = test system: scopolamine-induced cognitive impairment; test: Scopolamine-induced cognitive impairment, T-maze spontaneous alternation task; format: in vivo, CD-1 mice; set-up: key to Significance (compared to scopolamine only): * = p < 0.05; ** = p < 0.01; ns = not significant; conditions: mice; for Spontaneous alternations %: scopolamine 0.89 mg/kg; for Significance (compared to scopolamine only): spontaneous alternations
From the text: Mild cognitive impairment can be assessed in rodent models via delivery of various compounds that interfere with normal neurotransmitter signaling. Scopolamine is a compound that is well-known to antagonize muscarinic acetylcholine receptors, nicotinic receptors, as well as glutamatergic receptors such as NMDA receptors. Thus, delivery of scopolamine results in cognitive impairment, which can be assessed in a variety of cognitive tasks. Positive modulation of the HGF/MET system can promote NMDA receptor activation and results in pro-cognitive effects. Two test compounds, Compound 1a and Compound 5a, were evaluated for their ability to protect against scopolamine-induced cognitive impairment.
In this study, mild cognitive impairment was modeled in otherwise healthy male CD-1 mice (4-5 weeks old at study start) by acute delivery of 0.89 mg/kg scopolamine (dissolved in saline). Test compounds were administered via oral gavage 0.5 hours prior to scopolamine exposure, and cognitive performance was assessed in the T-maze spontaneous alternation task 0.5 hours after scopolamine exposure (1 hour following test compound exposure). The experimental protocol consisted of one single session, which started with 1 “forced-choice” trial, followed by 14 “free-choice” trials. In the first “forced-choice” trial, the animal was confined 5 seconds in the start arm and was then released while either the left or right goal arm was blocked by a horizontal door. After the mouse entered the open goal arm and returned to the start position, the left or right goal door was opened, and the animal was allowed to choose freely between the left and right goal arm (“free choice trials”). The animal was considered to have entered into an arm when it placed its four paws in the arm. Normal animals will choose to explore the previously-unexplored arm, which is recorded as a spontaneous alternation. […] The session was terminated, and the animal was removed from the maze as soon as 14 free-choice trials had been performed or 10 min had elapsed, whichever event occurred first.
This percentage was defined as entry into a different goal arm of the T maze over successive trials (e.g., left-right-left-right) and was calculated using the formula: (% alternations=Number of Alternations/14*100). Both compounds attenuated the degree of scopolamine-induced cognitive impairment, as indicated by increased percent of spontaneous alternations compared to scopolamine-only controls. Statistical analysis was accomplished via 1-way ANOVA with Dunnet's multiple comparisons post-test.

CCC(C)CN1CC2N(C(=O)c3ccc(C(F)(F)F)cc3)CCC(=O)N2[C@@H](C)C1=O (some centres unmarked) [Compound 1a]
Neuroprotective effect on rat neurons in culture ([1]; broad range of concentrations, entire cohort of insults tested): effective neuroprotective treatment
Protection of cell viability, statistical significance vs. insult control ([1]; insult Glutamate (25 uM) 24 hours, 0.1 nM + HGF (5 ng/ml)): +++ (+++=p<0.001)
Protection of cell viability, statistical significance vs. insult control ([1]; insult Glutamate (25 uM) 24 hours, 1 nM + HGF (5 ng/ml)): +++ (+++=p<0.001)
Protection of cell viability, statistical significance vs. insult control ([1]; insult Glutamate (25 uM) 24 hours, 100 nM (first column so headed) + HGF (5 ng/ml)): +++ (+++=p<0.001)
Protection of cell viability, statistical significance vs. insult control ([1]; insult Glutamate (25 uM) 24 hours, 100 nM (second column so headed) + HGF (5 ng/ml)): +++ (+++=p<0.001)
Protection of cell viability, statistical significance vs. insult control ([1]; insult Glutamate (25 uM) 24 hours, 1 uM + HGF (5 ng/ml)): +++ (+++=p<0.001)
Protection of cell viability, statistical significance vs. insult control ([1]; insult H2O2 (1 uM) 24 hours, 0.1 nM + HGF (5 ng/ml)): +++ (+++=p<0.001)
Protection of cell viability, statistical significance vs. insult control ([1]; insult H2O2 (1 uM) 24 hours, 1 nM + HGF (5 ng/ml)): +++ (+++=p<0.001)
Protection of cell viability, statistical significance vs. insult control ([1]; insult H2O2 (1 uM) 24 hours, 100 nM (first column so headed) + HGF (5 ng/ml)): +++ (+++=p<0.001)
Protection of cell viability, statistical significance vs. insult control ([1]; insult H2O2 (1 uM) 24 hours, 100 nM (second column so headed) + HGF (5 ng/ml)): +++ (+++=p<0.001)
Protection of cell viability, statistical significance vs. insult control ([1]; insult H2O2 (1 uM) 24 hours, 1 uM + HGF (5 ng/ml)): +++ (+++=p<0.001)
Protection of cell viability, statistical significance vs. insult control ([1]; insult LPS (1 uM) 24 hours, 0.1 nM + HGF (5 ng/ml)): +++ (+++=p<0.001)
Protection of cell viability, statistical significance vs. insult control ([1]; insult LPS (1 uM) 24 hours, 1 nM + HGF (5 ng/ml)): NS
Protection of cell viability, statistical significance vs. insult control ([1]; insult LPS (1 uM) 24 hours, 100 nM (first column so headed) + HGF (5 ng/ml)): +++ (+++=p<0.001)
Protection of cell viability, statistical significance vs. insult control ([1]; insult LPS (1 uM) 24 hours, 100 nM (second column so headed) + HGF (5 ng/ml)): +++ (+++=p<0.001)
Protection of cell viability, statistical significance vs. insult control ([1]; insult LPS (1 uM) 24 hours, 1 uM + HGF (5 ng/ml)): +++ (+++=p<0.001)
Protection of cell viability, statistical significance vs. insult control ([1]; insult MPP+ (500 uM) 24 hours, 0.1 nM + HGF (5 ng/ml)): +++ (+++=p<0.001)
Protection of cell viability, statistical significance vs. insult control ([1]; insult MPP+ (500 uM) 24 hours, 1 nM + HGF (5 ng/ml)): +++ (+++=p<0.001)
Protection of cell viability, statistical significance vs. insult control ([1]; insult MPP+ (500 uM) 24 hours, 100 nM (first column so headed) + HGF (5 ng/ml)): +++ (+++=p<0.001)
Protection of cell viability, statistical significance vs. insult control ([1]; insult MPP+ (500 uM) 24 hours, 100 nM (second column so headed) + HGF (5 ng/ml)): +++ (+++=p<0.001)
Protection of cell viability, statistical significance vs. insult control ([1]; insult MPP+ (500 uM) 24 hours, 1 uM + HGF (5 ng/ml)): +++ (+++=p<0.001)
Spontaneous alternations % ([2]; 0.5 mg/kg via PO): 52%
Significance (compared to scopolamine only) ([2]; 0.5 mg/kg via PO): ** (** = p < 0.01)
Spontaneous alternations % ([2]; 2 mg/kg via PO): 55%
Significance (compared to scopolamine only) ([2]; 2 mg/kg via PO): ** (** = p < 0.01)
Spontaneous alternations % ([2]; 8 mg/kg via PO): 47%
Significance (compared to scopolamine only) ([2]; 8 mg/kg via PO): ns
Spontaneous alternations % ([2]; 16 mg/kg via PO): 51%
Significance (compared to scopolamine only) ([2]; 16 mg/kg via PO): * (* = p < 0.05)
Spontaneous alternations % ([2]; 32 mg/kg via PO): 55%
Significance (compared to scopolamine only) ([2]; 32 mg/kg via PO): ** (** = p < 0.01)

CCC(C)CN1CC2N(Cc3ccc(C(F)(F)F)cc3)CCC(=O)N2[C@@H](C)C1=O (some centres unmarked) [Compound 5a]
Spontaneous alternations % ([2]; 1.25 mg/kg via PO): 51%
Significance (compared to scopolamine only) ([2]; 1.25 mg/kg via PO): * (* = p < 0.05)
Spontaneous alternations % ([2]; 2.5 mg/kg via PO): 57%
Significance (compared to scopolamine only) ([2]; 2.5 mg/kg via PO): ** (** = p < 0.01)
Spontaneous alternations % ([2]; 5 mg/kg via PO): 52%
Significance (compared to scopolamine only) ([2]; 5 mg/kg via PO): * (* = p < 0.05)
Spontaneous alternations % ([2]; 10 mg/kg via PO): 55%
Significance (compared to scopolamine only) ([2]; 10 mg/kg via PO): ** (** = p < 0.01)
Spontaneous alternations % ([2]; 20 mg/kg via PO): 52%
Significance (compared to scopolamine only) ([2]; 20 mg/kg via PO): * (* = p < 0.05)
